Experimental data as given in PubChem BioAssay AID743402 (Broad Institute, 2014).

Test system: FRT CFTR-F508del YFP iodide quenching, 24 h
Test: CFTR-F508del correctors, dose response, FRT cells, YFP quenching, cherry-pick (AID 743402);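 also: compounds act as correctors raising surface CFTR-F508del before acute activation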
[1] = channel opened with forskolin and a potentiator

Compound	AC35 [1]	AC35
CCC(=O)N1CC2(CCN(Cc3ccc(Cl)cc3)CC2)c2c([nH]c3cc(OC)ccc23)[C@H]1CO	22.2 µM	
O=C1c2cccc3c(N4CCCCC4)ccc(c23)C(=O)N1c1cccc(O)c1	4.44 µM	
C=CCN1C(=O)/C(=C/C=C2/N(CC)c3ccc(S(=O)(=O)N(C)C)cc3N2CC)SC1=S	1.3 µM	
O=c1ccc2[n+]([O-])c3ccc(O)cc3oc-2c1	10.9 µM	
CN(C)CCNC(=O)c1ccc(Cl)c2cc3ccccc3nc12	9.45 µM	
Cc1ccc(N2C(=O)c3cccc4c([N+](=O)[O-])ccc(c34)C2=O)c2cccnc12	4.81 µM	
CC(C)n1cc(/C=C/c2cc[n+](C)cc2)c2ccccc21	0.752 µM	
O=C1c2cccc3c(O)ccc(c23)C(=O)N1Cc1ccco1	2.65 µM	
COC1C(C)OC(OC2CC(C)(O)Cc3cc4c(c(O)c32)C(=O)c2c(O)cc3c(c2C4=O)OC2OC3(C)C(O)C(N(C)C)C2O)C(OC)C1(C)OC (stereo not drawn)		2.39 µM
Nc1ccc2c3c(cccc13)C(=O)N(c1ccccc1)C2=O	1.93 µM	
CCCC#Cc1ccc([C@H]2[C@@H](CO)N3CCCCN(S(=O)(=O)c4ccccc4C)C[C@H]23)cc1	19 µM	
CC(=O)Oc1ccc(N2C(=O)c3cccc4c([N+](=O)[O-])ccc(c34)C2=O)cc1	8.38 µM	
O=c1c2ccccc2sc2c(CO)ccc(NCCN3CCCCC3)c12	21.8 µM	
COc1cccc(-c2ccc(C3[C@@H]4CN(S(=O)(=O)c5cccc(OC)c5)C[C@H]3N4)cc2)c1 (stereo partly drawn)	16 µM	
C[C@H]1CN([C@@H](C)CO)S(=O)(=O)c2ccc(C#Cc3ccc(F)cc3)cc2O[C@H]1CN(C)C(=O)NC1CCCCC1	22.6 µM	
COc1cccc2c1C(=O)c1c(O)c3c(c(O)c1C2=O)CC(O)(C(C)=O)CC3OC1CC(N(C)C)C(O)C(C)O1 (stereo not drawn)	1.03 µM	
CC1=NCCc2c1[nH]c1cc(O)ccc21		13.4 µM
C[C@H]1CCC/C=C/[C@@H]2C[C@H](O)C[C@H]2[C@H](O)/C=C/C(=O)O1		15.2 µM
Nc1ccc(-c2c3ccc(=O)cc-3oc3cc(O)ccc23)cc1C(=O)O	1.61 µM	
O=C1c2cccc(NCCCNCCO)c2C(=O)c2cccc(NCCCNCCO)c21	5.19 µM	
CCCCN1C(=O)/C(=C/C=C2\Oc3ccccc3N2CC)SC1=S	1.64 µM	
O=S(=O)(c1ccc(F)cc1)N1CC[C@@H]2[C@@H](CO)Nc3ccc(-c4ccc(F)cc4)cc3[C@@H]21	17.7 µM	
O=C1c2cccc3c([N+](=O)[O-])ccc(c23)C(=O)N1Cc1cccnc1	9.18 µM	
Clc1ccc(Nc2ccc3ccccc3n2)cc1	4.5 µM	
CNc1c2cccc(C)c2nc2c(C(=O)NCCN(C)C)cccc12	10.5 µM	
C[C@@H]1CN([C@@H](C)CO)C(=O)Cc2cc(NC(=O)Nc3cccc4ccccc34)ccc2O[C@@H]1CN(C)Cc1ccc(Cl)c(Cl)c1	22.4 µM	

Compound	AC35 [1]	AC35
COc1cc(/C=C2/SC(=S)N(Cc3ccccc3)C2=O)cc(Cl)c1O	3.7 µM	
Cn1c(=O)c(NC2CCCCC2)c2c3c(cccc31)C(=O)c1ccccc1-2	1.05 µM	
O=C(O)c1ccccc1-c1c2cc(I)c(=O)c(I)c-2oc2c(I)c(O)c(I)cc12	1.74 µM	
CC[n+]1c(-c2ccccc2)c2cc(N)ccc2c2ccc(N)cc21		13.3 µM
O=C(C1CCCC1)N1CC(=O)N2[C@H](CO)[C@@H](c3ccc(-c4ccccc4F)cc3)[C@@H]2C1	22.2 µM	
COc1ccc(OC)c(Nc2nc(-c3sc(NC(=O)C(C)(C)C)nc3C)cs2)c1	0.908 µM	
C#C[C@]1(O)CC[C@H]2[C@@H]3CCc4cc(OC5CCCC5)ccc4[C@H]3CC[C@@]21C	25.1 µM	
CCC1(C)OC(c2ccccc2)=C/C(=C/C=C2C(=O)NC(=O)NC2=O)O1 (stereo not drawn)		11.7 µM
N#C/C(=C\c1ccccn1)c1nc2ccccc2s1	3.38 µM	
COC(=O)Cn1c(=NC(=O)c2cc(-c3cccs3)nc3ccccc23)sc2cc(S(N)(=O)=O)ccc21	9.92 µM	
CN1C(=O)c2cccc3c(N)ccc(c23)C1=O	2.62 µM	
O=c1ccc2c(-c3ccccc3)c3ccc(O)cc3oc-2c1	1.11 µM	
CNc1ccc2c3c(cccc13)C(=O)N(C)C2=O	0.651 µM	
CC1(S(=O)(=O)O)CC(=O)c2ccccc2C1=O (stereo not drawn)	6 µM	
N#CC(C#N)=C1C=C2C=C(N3CCCCCC3)CCC2CC1 (stereo not drawn)	0.0871 µM	
CC1(C)OC(c2ccccc2)=C/C(=C/C=C2C(=O)NC(=O)NC2=O)O1		13.4 µM
COc1cccc2c1C(=O)c1c(O)c3c(c(O)c1C2=O)C[C@@](O)(C(C)=O)C[C@@H]3O[C@H]1C[C@H](N)[C@H](O)[C@H](C)O1	0.856 µM	
CCN1C(=O)c2cccc3c(N)ccc(c23)C1=O	2.83 µM	
COc1cccc(Nc2nc(-c3sc(NC(=O)c4ccccc4)nc3C)cs2)c1	4.43 µM	
COc1cc(/C=C2\SC(=Nc3ccc(Cl)c(C(=O)O)c3)NC2=O)c(Br)c(Br)c1O	2.19 µM	
CCOc1ccc(C)cc1S(=O)(=O)n1cnc2ccccc21	15.9 µM	
CCN(CC)CCn1c2ccccc2c2nc3ccccc3nc21	17.3 µM	
COc1cccc(S(=O)(=O)N2C[C@@H]3N[C@H](C2)C3c2ccc(-c3cccc(C)c3)cc2)c1 (stereo partly drawn)	21 µM	
Cc1cc(Nc2ccc(Br)cc2)nc2ccccc12	8.45 µM	
COC(=O)c1cc2c(=O)c3ccccc3oc2nc1/C=C/N(C)C	0.544 µM	
COc1c(C=O)c2c(c(OC)c1OC)-c1ccc(OC)c(=O)cc1C(NC(C)=O)CC2 (stereo not drawn)	20.9 µM	

Compound	AC35 [1]	AC35
N#Cc1ccc(-c2ccc3c(c2)[C@H]2[C@H](CCN2S(=O)(=O)c2ccccc2F)[C@@H](CO)N3)cc1	21.3 µM	
CCOC(=O)/C(=C/C=C1\Sc2cc(C)c(C)cc2N1CC)C(C)=O	3.13 µM	
CCN(CC)c1ccc(/C=C(/C#N)c2nc3ccc(C)cc3[nH]2)c(OC(C)C)c1	0.796 µM	
C=C1SC(Nc2c(C)cc(C)cc2C)=NC12CCCCC2	3.59 µM	
CC(=O)Nc1sc2c(c1-c1nc3ccccc3s1)CN(C(C)C)CC2	10.7 µM	
COc1ccccc1Nc1nc(-c2sc(NC(=O)C(C)(C)C)nc2C)cs1	3.51 µM	
CC(=O)Nc1ccc2cc3ccc(NC(C)=O)cc3nc2c1	3.98 µM	
O=[N+]([O-])c1ccc(N2CCOCC2)c2c1no[n+]2[O-]		10.4 µM
C[n+]1c2cc(N)ccc2cc2ccc(N)cc21	0.51 µM	0.19 µM
OC[C@@H]1[C@@H](c2ccccc2)C2(CN(Cc3ccccc3F)C2)N1Cc1ccccc1F	23.1 µM	
CC1(C)OC(c2ccccc2)=C/C(=C/C=C2C(=O)NC(=S)NC2=O)O1		3.34 µM
COc1ccccc1N1CCN(C(=O)c2ccc(-c3ccc(Cl)cc3)o2)CC1	7.37 µM	
O=C(Nc1cccc(F)c1)N1CCCCN2[C@@H](CO)[C@H](c3ccc(C#CC4CC4)cc3)[C@@H]2C1	20.8 µM	
CN1/C(=C\C=C2/SC(=S)N(CC(=O)O)C2=O)C(C)(C)c2ccccc21	1.37 µM	
CC1=C/C(=C\C=C(C#N)C#N)N(C)c2ccccc21	5.2 µM	
COc1cc(OC)cc(C(=O)N[C@H](C(=O)Nc2nc3ccccc3[nH]2)C(C)C)c1	9.27 µM	
CN1/C(=C\C=C2/SC(=S)NC2=O)C(C)(C)c2ccccc21	2.6 µM	
c1ccc2c(NCCCN3CCOCC3)c3ccccc3nc2c1	16.6 µM	
c1ccc2c(c1)C1=NCCN1c1ccccc1-2	8.91 µM	
COc1ccc([C@H]2CC(=O)C=C(c3ccc(OC)cc3OC)C2)cc1	25 µM	
C[C@@H]1CCCCO[C@H](CN(C)Cc2ccc(Cl)c(Cl)c2)[C@@H](C)CN([C@@H](C)CO)C(=O)c2cc(NS(=O)(=O)c3ccc(Cl)cc3)ccc2O1	23.5 µM	
COc1cc(OC)c(-c2c3cc(O)c(=O)cc-3oc3cc(O)c(O)cc23)cc1OC	4.15 µM	
O=C(Cc1ccccc1)N1CC(=O)N2[C@H](C1)[C@@H](c1ccc(C#Cc3ccccc3)cc1)[C@@H]2CO	21.3 µM	
CCOC1=C/C(=C/c2c(N)n3nc(S(=O)(=O)CC)sc3nc2=O)C=CC1=O	9.92 µM	
CN1C(=CC=C2C=C(I)C(=O)C(I)=C2)C(C)(C)c2ccccc21	5.68 µM	
Cc1cc2[nH]c3c(c[n+](C)c4ccccc34)c2cc1C	13.4 µM	

Compound	AC35 [1]	AC35
Nc1ccc2ccc3cccc[n+]3c2c1		7.53 µM
COc1ccc2noc3c2c1C(=O)c1ccccc1-3	5.51 µM	
O=C(C1CC1)N1CC(=O)N2[C@H](CO)[C@@H](c3ccc(-c4ccccc4F)cc3)[C@@H]2C1	19.7 µM	
CCN1/C(=C\c2ccc3cc(C)ccc3[n+]2CC)Sc2cc(C)c(C)cc21	1.02 µM	
CC(C)N1CCc2c(sc(NC(=O)c3ccc([N+](=O)[O-])o3)c2C(N)=O)C1	6.42 µM	
NS(=O)(=O)c1ccc(NC(=O)c2cccc3cc4ccccc4nc23)cc1	20.9 µM	
COc1ccc(/C=N/NC(=O)c2cccnc2)cc1CSc1ccccn1	8.21 µM	
CC(=O)OCCn1c2nc(=O)[nH]c(=O)c-2nc2cc(C)c(C)cc21	1.37 µM	
N#CC(C#N)=C1C=C2C=C(N3CCOCC3)CCC2CC1 (stereo not drawn)	0.14 µM	
COC(C(=O)C(O)C(C)O)C1Cc2cc3cc(OC4CC(OC5CC(O)C(O)C(C)O5)C(O)C(C)O4)c(C)c(O)c3c(O)c2C(=O)C1OC1CC(OC2CC(OC3CC(O)C(OC)C(C)O3)C(O)C(C)O2)C(O)C(C)O1 (stereo not drawn)	0.583 µM	
CN1c2ccc(-c3ccc(F)cc3)cc2[C@H]2[C@H](CCN2S(=O)(=O)c2cccc(F)c2)[C@H]1CO	15.5 µM	
COc1cccc2c1C(=O)c1c(O)c3c(c(O)c1C2=O)CC(O)(C(=O)CO)CC3OC1CC(N(C)C)C(O)C(C)O1 (stereo not drawn)	1.37 µM	
CCC1=C(CC2NCCc3ccccc32)CC2c3cc(OC)c(OC)cc3CCN2C1 (stereo not drawn)	15.4 µM	
CCN(CC)C1=CC2=CC(=C(C#N)C#N)CCC2CC1 (stereo not drawn)	0.0855 µM	
CCCOc1cc(N(CC)CC)ccc1/C=C(/C#N)c1nc2ccc(C)cc2[nH]1	0.505 µM	
CN(C)CCCNc1c2ccccc2nc2ccccc12	3.57 µM	
CCCC(=O)NC1=C(Cl)C(=O)c2ccccc2C1=O	7.72 µM	
CN1c2ccc(-c3ccc(F)cc3)cc2[C@H]2[C@H](CCN2S(=O)(=O)c2ccc(F)cc2)[C@H]1CO	21.9 µM	
CC(=NNC(=O)c1ccncc1)c1ccc2ccccc2c1O	4.3 µM	
CCN(CC)CCCNc1ccc2ncn3c4ccc(O)cc4c(=O)c1c23	4.01 µM	
O=[N+]([O-])c1ccc(/C=C/C2=NN(c3ccccc3)C(c3ccco3)C2)o1 (stereo not drawn)	2.93 µM	
C[C@H]1CN([C@@H](C)CO)S(=O)(=O)c2ccc(/C=C/c3ccccc3)cc2O[C@H]1CN(C)Cc1ccccc1	21.9 µM	
CO[C@@]12[C@@H]3N[C@@H]3CN1C1=C(C(=O)C(N)=C(C)C1=O)[C@@H]2COC(N)=O	19.4 µM	
COc1cccc2c1C(=O)C=C(C)C2=O	6.68 µM	
